Structures are written as SMILES. Counter-ions that a name gives are not always drawn. Like-named read-outs stand apart in the source and are kept apart here.

The source of these data is patent US10016396B2, “Dexmedetomidine premix formulation” (Hospira, Inc., priority 2012, dated 2018).

How the values of this data set were obtained: The stability of dexmedetomidine hydrochloride to acidic, basic, oxidative and photolytic stress was examined. […] Each sample was injected in duplicate.

Turning to `Cc1cccc([C@H](C)c2cnc[nH]2)c1C` [dexmedetomidine hydrochloride], the “degradation compared to the control sample” value (8 h, 13.3 μg/mL) turned out to be 12.7%. In addition, the Assay was determined as 95.2% (Acid Sample: 5N Hydrochloric Acid, 60° C., 8 hours); 93.8% (Base Sample: 2N Sodium Hydroxide, 60° C., 4 hours); 98.4% (Control Sample, not subjected to any stress); 98.4% (Heat Sample: 60° C., 8 hours); 92.0% (Light Sample: photochemical reaction unit, 24 hours); 85.7% (Oxidation Sample: 0.3% Hydrogen Peroxide, 60° C., 8 hours).
